This note sets out measurements from PubChem BioAssay AID248 (DTP/NCI, 2004).

The subject of the assay is L1210 leukemia ip in BDF1 mice, survival T/C. Put plainly: NCI In Vivo Anticancer Drug Screen. Data for tumor model L1210 Leukemia (intraperitoneal) in B6D2F1 (BDF1) mice. The settings on record: endpoint: mean survival time, higher = longer survival. An outline of the steps:
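Read-out is survival time, reported as the treated-group measurement over the vehicle-control measurement.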

The mark [1] stands for this setting: dose: 100.0 mg/kg/injection, schedule: Q04DX003 (ip), vehicle: saline with Tween-80.
Where [2] appears, read: dose: 200.0 mg/kg/injection, schedule: Q04DX003 (ip), vehicle: saline with Tween-80.
Where [3] appears, read: dose: 400.0 mg/kg/injection, schedule: Q04DX003 (ip), vehicle: saline with Tween-80.
Where [4] appears, read: dose: 100.0 mg/kg/injection, schedule: Q01DX001 (ip), vehicle: saline.
Where [5] appears, read: dose: 200.0 mg/kg/injection, schedule: Q01DX001 (ip), vehicle: saline.
[6] abbreviates: dose: 400.0 mg/kg/injection, schedule: Q01DX001 (ip), vehicle: saline.
[7] abbreviates: dose: 100.0 mg/kg/injection, schedule: Q04DX002 (ip), vehicle: saline with Tween-80.
[8] abbreviates: dose: 200.0 mg/kg/injection, schedule: Q04DX002 (ip), vehicle: saline with Tween-80.
[9] abbreviates: dose: 400.0 mg/kg/injection, schedule: Q04DX002 (ip), vehicle: saline with Tween-80.
Setting [10] is: dose: 100.0 mg/kg/injection, schedule: Q01DX001 (ip), vehicle: saline with Tween-80.
[11] abbreviates: dose: 200.0 mg/kg/injection, schedule: Q01DX001 (ip), vehicle: saline with Tween-80.
Setting [12] is: dose: 400.0 mg/kg/injection, schedule: Q01DX001 (ip), vehicle: saline with Tween-80.
Setting [13] is: dose: 50.0 mg/kg/injection, schedule: Q01DX001 (ip), vehicle: carboxymethylcellulose (CMC).
Where [14] appears, read: dose: 100.0 mg/kg/injection, schedule: Q01DX001 (ip), vehicle: carboxymethylcellulose (CMC).
Setting [15] is: dose: 200.0 mg/kg/injection, schedule: Q01DX001 (ip), vehicle: carboxymethylcellulose (CMC).
Setting [16] is: dose: 100.0 mg/kg/injection, schedule: Q01DX009 (ip), vehicle: Klucel (hydroxypropylcellulose) (HPC).
Where [17] appears, read: dose: 200.0 mg/kg/injection, schedule: Q01DX009 (ip), vehicle: Klucel (hydroxypropylcellulose) (HPC).
[18] abbreviates: dose: 400.0 mg/kg/injection, schedule: Q01DX009 (ip), vehicle: Klucel (hydroxypropylcellulose) (HPC).
Where [19] appears, read: dose: 50.0 mg/kg/injection, schedule: Q01DX009 (ip), vehicle: Klucel (hydroxypropylcellulose) (HPC).
The mark [20] stands for this setting: dose: 50.0 mg/kg/injection, schedule: Q04DX003 (ip), vehicle: Klucel (hydroxypropylcellulose) (HPC).
The mark [21] stands for this setting: dose: 100.0 mg/kg/injection, schedule: Q01DX001 (ip), vehicle: Klucel (hydroxypropylcellulose) (HPC).
Setting [22] is: dose: 100.0 mg/kg/injection, schedule: Q04DX003 (ip), vehicle: Klucel (hydroxypropylcellulose) (HPC).
The mark [23] stands for this setting: dose: 200.0 mg/kg/injection, schedule: Q01DX001 (ip), vehicle: Klucel (hydroxypropylcellulose) (HPC).
Setting [24] is: dose: 200.0 mg/kg/injection, schedule: Q04DX003 (ip), vehicle: Klucel (hydroxypropylcellulose) (HPC).
Where [25] appears, read: dose: 400.0 mg/kg/injection, schedule: Q04DX003 (ip), vehicle: Klucel (hydroxypropylcellulose) (HPC).
Where [26] appears, read: dose: 400.0 mg/kg/injection, schedule: Q01DX001 (ip), vehicle: Klucel (hydroxypropylcellulose) (HPC).

Molecules are shown by their SMILES. Where “and” joins values, the source holds several entries; their conditions need not be identical. Equal values may be shown once. Toxic doses and inconclusive results are not listed.

On to `Cc1c2cnccc2c(C)c2c1c1ccccc1n2CCOC(=O)c1ccccc1`, for which the T/C reads like this: (dose: 50.0 mg/kg/injection, schedule: Q01DX009 (ip), vehicle: saline with Tween-80) 88 % of control; (dose: 100.0 mg/kg/injection, schedule: Q01DX009 (ip), vehicle: saline with Tween-80) 98 % of control and 88 % of control; under setting [1], 100 % of control; (dose: 200.0 mg/kg/injection, schedule: Q01DX009 (ip), vehicle: saline with Tween-80) 93 % of control; under setting [2], 97 % of control; (dose: 400.0 mg/kg/injection, schedule: Q01DX009 (ip), vehicle: saline with Tween-80) 95 % of control. Also, the T/C under setting [3] is 91 % of control.

With `CCCCC(=O)CCl`, the T/C was 103 % of control under setting [4], 120 % of control under setting [5] and 114 % of control under setting [6].

Regarding `c1ccc2nc3nc4ccccc4nc3nc2c1`, the T/C (dose: 5.0 mg/kg/injection, schedule: Q04DX002 (ip), vehicle: gum acacia) was 90 % of control; the T/C (dose: 10.0 mg/kg/injection, schedule: Q04DX002 (ip), vehicle: gum acacia) is 93 % of control; the T/C (dose: 20.0 mg/kg/injection, schedule: Q04DX002 (ip), vehicle: gum acacia) is 93 % of control and 94 % of control; the T/C (dose: 75.0 mg/kg/injection, schedule: Q01DX001 (ip), vehicle: other) was 102 % of control; the T/C under setting [7] was 106 % of control; the T/C (dose: 150.0 mg/kg/injection, schedule: Q01DX001 (ip), vehicle: other) was 98 % of control. Further, the T/C under setting [8] was 100 % of control; the T/C (dose: 300.0 mg/kg/injection, schedule: Q01DX001 (ip), vehicle: other) was 103 % of control; the T/C under setting [9] was 91 % of control.

For `CC(=O)NCCO`, the T/C is, setting by setting: under setting [10], 100 % of control; under setting [11], 105 % of control; under setting [12], 100 % of control.

Turning to `CCSC(C(OC(C)=O)C(OC(C)=O)C(OC(C)=O)C(COC(C)=O)OC(C)=O)n1cc(C)c(=O)[nH]c1=O` (configuration not stated), the T/C was 100 % of control and 97 % of control under setting [13]; 97 % of control and 94 % of control under setting [14]; 100 % of control under setting [15]; 100 % of control and 103 % of control (dose: 400.0 mg/kg/injection, schedule: Q01DX001 (ip), vehicle: carboxymethylcellulose (CMC)).

Take `Nc1cc(=O)[nH]c(O)c1C(=O)O`: the T/C is 98 % of control and 90 % of control under setting [1]; 97 % of control under setting [2]; 94 % of control under setting [3].

For the compound `CCC1(CCC#N)CCc2[nH]c3ccccc3c2C1=O` (configuration not stated), the T/C under setting [7] was 108 % of control, the T/C under setting [8] was 94 % of control and the T/C under setting [9] was 87 % of control.

Regarding `Cc1cccc(-c2nc3ncnc(N)c3[nH]2)c1`, the T/C by setting is: (dose: 6.25 mg/kg/injection, schedule: Q01DX001 (ip), vehicle: saline with Tween-80) 95 % of control; (dose: 12.5 mg/kg/injection, schedule: Q01DX001 (ip), vehicle: saline with Tween-80) 97 % of control; (dose: 25.0 mg/kg/injection, schedule: Q01DX001 (ip), vehicle: saline with Tween-80) 101 % of control.

With `CCCCCCCCCC(=O)N/N=C/c1ccccc1O`, the T/C is 93 % of control under setting [16], 101 % of control under setting [17] and 105 % of control under setting [18].

On to `COC(=O)c1c2cccccc-2c(C(=O)OC)c1N`, for which the T/C by setting is: under setting [7], 97 % of control; under setting [8], 91 % of control; under setting [9], 94 % of control.

With `O=C(NCCCl)NC(Cc1ccccc1)C(=O)O` (configuration not stated), the T/C reads like this: under setting [10], 94 % of control; under setting [11], 94 % of control; under setting [12], 91 % of control.

Take `COc1ccc(SC2CCCCC2OS(C)(=O)=O)cc1` (configuration not stated): the T/C under setting [19] is 107 % of control; the T/C under setting [20] was 102 % of control; the T/C under setting [21] is 106 % of control; the T/C under setting [16] is 109 % of control; the T/C under setting [22] is 106 % of control; the T/C under setting [23] is 95 % of control. The T/C was 98 % of control under setting [17] and 104 % of control under setting [24].

Consider `O=C1CCCCC1CC1(O)C(=O)NC2CCC(Br)CC21` (configuration not stated), for which the T/C (dose: 200.0 mg/kg/injection, schedule: Q04DX002 (ip), vehicle: Klucel (hydroxypropylcellulose) (HPC)) was 100 % of control and the T/C (dose: 400.0 mg/kg/injection, schedule: Q04DX002 (ip), vehicle: Klucel (hydroxypropylcellulose) (HPC)) is 92 % of control.

As to `CCON=C1C(C)(C)C(C)(C)C(C)(C)C1(C)C`, the T/C under setting [16] is 98 % of control, the T/C under setting [17] was 95 % of control and the T/C under setting [18] was 96 % of control.

Regarding `S=C=NC1CCC(CC2CCCCC2)CC1` (configuration not stated), the T/C reads like this: (dose: 25.0 mg/kg/injection, schedule: Q01DX009 (ip), vehicle: Klucel (hydroxypropylcellulose) (HPC)) 105 % of control; under setting [19], 94 % of control; under setting [16], 93 % of control and 96 % of control; under setting [22], 98 % of control; under setting [24], 101 % of control; under setting [25], 103 % of control.

Consider `CCOC(=O)c1nnc(-c2ccccc2)[nH]c1=O`, for which the T/C is 92 % of control under setting [19], 103 % of control under setting [16] and 103 % of control under setting [17].

In the case of `CSc1ncc2c(=O)n(C)[nH]c2n1`, the T/C runs as follows: under setting [21], 93 % of control; under setting [23], 92 % of control; under setting [26], 90 % of control.

On to `O=C(OCC1OC(n2cnc3c(=S)nc[nH]c32)C(OC(=O)c2ccc(Cl)cc2)C1OC(=O)c1ccc(Cl)cc1)c1ccc(Cl)cc1` (configuration not stated), for which the T/C is 104 % of control under setting [4]; 122 % of control (dose: 100.0 mg/kg/injection, schedule: Q01DX009 (ip), vehicle: saline); 101 % of control under setting [5]; 113 % of control under setting [6]; 166 % of control (dose: 800.0 mg/kg/injection, schedule: Q01DX009 (ip), vehicle: saline).

Consider `CCN(CC)S(=O)(=O)/C=C\c1ccccc1`, for which the T/C is, setting by setting: under setting [20], 96 % of control; under setting [21], 98 % of control; under setting [22], 107 % of control; under setting [23], 107 % of control; under setting [24], 102 % of control; under setting [26], 102 % of control. Besides, the T/C under setting [25] is 104 % of control.

On to `NC(CSS(=O)(=O)O)=NCc1cccs1`, for which the T/C was 103 % of control (dose: 12.5 mg/kg/injection, schedule: Q01DX009 (ip), vehicle: saline with Tween-80) and 96 % of control (dose: 25.0 mg/kg/injection, schedule: Q01DX009 (ip), vehicle: saline with Tween-80).

Consider `O=C(CCCC(=O)N/N=C/c1ccc2c(c1)CCC2)N/N=C/c1ccc2c(c1)CCC2`, for which the T/C was 95 % of control under setting [1], 97 % of control under setting [2] and 90 % of control under setting [3].

As for `c1ccc(-c2ccns2)cc1`, the T/C runs as follows: under setting [13], 89 % of control; under setting [14], 89 % of control; under setting [15], 93 % of control.

Take `CCOC(=O)C(C1=NC(C)(C)CC(C)O1)C(C[N+](=O)[O-])c1ccccc1` (configuration not stated): the T/C is, setting by setting: (dose: 100.0 mg/kg/injection, schedule: Q01DX001 (ip), vehicle: other) 97 % of control; (dose: 200.0 mg/kg/injection, schedule: Q01DX001 (ip), vehicle: other) 97 % of control; (dose: 400.0 mg/kg/injection, schedule: Q01DX001 (ip), vehicle: other) 100 % of control.
